Organism: Rattus norvegicus
Format: toxicity, organism-based, Sprague-Dawley
Settings: in vivo, sc, 24 h, route mini-PUMP - SUBCUTANEOUS, time 1 day, vehicle 100 % SALINE; for ABSOLUTE EOSINOPHIL / ABSOLUTE LYMPHOCYTE / ABSOLUTE MONOCYTE / ABSOLUTE SEGMENTED NEUTROPHIL / BASOPHIL / EOSINOPHIL / ERYTHROCYTE COUNT / HEMATOCRIT / HEMOGLOBIN / LEUKOCYTE COUNT / LYMPHOCYTE / MEAN CORPUSCULAR HEMOGLOBIN / MEAN CORPUSCULAR HEMOGLOBIN CONCENTRATION / MEAN CORPUSCULAR VOLUME / MONOCYTE / NEUTROPHIL / NUCLEATED RED BLOOD CELLS / PLATELET COUNT: tissue Blood; for ALANINE AMINOTRANSFERASE / ALBUMIN / ALKALINE PHOSPHATASE / ASPARTATE AMINOTRANSFERASE / BLOOD UREA NITROGEN / CARBON DIOXIDE / CHLORIDE / CHOLESTEROL / CREATININE / GLUCOSE / LACTATE DEHYDROGENASE / LIPASE / PHOSPHORUS / POTASSIUM / SODIUM / TOTAL BILIRUBIN / TOTAL PROTEIN / URIC ACID: tissue Plasma
[1] = 0 mg/kg, vehicle control, dose level Control
[2] = […], dose 0.065 mg/Kg, dose level High

Description: DrugMatrix - Regimen: Single

C[C@]12CCC(=O)C=C1CC[C@@H]1[C@@H]2[C@@H](O)C[C@]2(C=O)[C@@H](C(=O)CO)CC[C@@H]12 [ALDOSTERONE]
ABSOLUTE EOSINOPHIL [1]: 26.17 CELLS/uL | ABSOLUTE LYMPHOCYTE [1]: 10985.83 CELLS/uL | ABSOLUTE MONOCYTE [1]: 234.5 CELLS/uL | ABSOLUTE SEGMENTED NEUTROPHIL [1]: 1753.5 CELLS/uL | BASOPHIL [1]: 0% | EOSINOPHIL [1]: 0.17% | ERYTHROCYTE COUNT [1]: 5.64 x10E6/uL | HEMATOCRIT [1]: 34.52% | HEMOGLOBIN [1]: 12.68 G/DL | LEUKOCYTE COUNT [1]: 13 x10E3/uL | LYMPHOCYTE [1]: 84.5% | MEAN CORPUSCULAR HEMOGLOBIN [1]: 22.5 pg | MEAN CORPUSCULAR HEMOGLOBIN CONCENTRATION [1]: 36.78 G/DL | MEAN CORPUSCULAR VOLUME [1]: 61.18 fL | MONOCYTE [1]: 1.83% | NEUTROPHIL [1]: 13.5% | NUCLEATED RED BLOOD CELLS [1]: 0.17 /100WBC | PLATELET COUNT [1]: 679.17 x10E3/uL | ALANINE AMINOTRANSFERASE [1]: 42.67 u/L | ALBUMIN [1]: 3.77 G/DL | ALKALINE PHOSPHATASE [1]: 291.17 u/L | ASPARTATE AMINOTRANSFERASE [1]: 74.5 u/L | BLOOD UREA NITROGEN [1]: 15.33 mg/dL | CARBON DIOXIDE [1]: 30 mmol/L | CHLORIDE [1]: 100.83 MEQ/L | CHOLESTEROL [1]: 65.33 mg/dL | CREATININE [1]: 0.15 mg/dL | GLUCOSE [1]: 179.83 mg/dL | LACTATE DEHYDROGENASE [1]: 162.67 u/L | LIPASE [1]: 8.5 u/L | PHOSPHORUS [1]: 12.2 mg/dL | POTASSIUM [1]: 5.73 MEQ/L | SODIUM [1]: 144.7 MEQ/L | TOTAL BILIRUBIN [1]: 0.15 mg/dL | TOTAL PROTEIN [1]: 5.87 G/DL | URIC ACID [1]: 1.93 mg/dL | ABSOLUTE EOSINOPHIL [2]: 35 CELLS/uL | ABSOLUTE LYMPHOCYTE [2]: 9989.33 CELLS/uL | ABSOLUTE MONOCYTE [2]: 255.33 CELLS/uL | ABSOLUTE SEGMENTED NEUTROPHIL [2]: 2453.67 CELLS/uL | BASOPHIL [2]: 0% | EOSINOPHIL [2]: 0.33% | ERYTHROCYTE COUNT [2]: 5.74 x10E6/uL | HEMATOCRIT [2]: 34.13% | HEMOGLOBIN [2]: 12.57 G/DL | LEUKOCYTE COUNT [2]: 12.73 x10E3/uL | LYMPHOCYTE [2]: 78.33% | MEAN CORPUSCULAR HEMOGLOBIN [2]: 21.87 pg | MEAN CORPUSCULAR HEMOGLOBIN CONCENTRATION [2]: 36.77 G/DL | MEAN CORPUSCULAR VOLUME [2]: 59.43 fL | MONOCYTE [2]: 2.33% | NEUTROPHIL [2]: 19% | NUCLEATED RED BLOOD CELLS [2]: 0.33 /100WBC | PLATELET COUNT [2]: 980 x10E3/uL | ALANINE AMINOTRANSFERASE [2]: 37.33 u/L | ALBUMIN [2]: 3.87 G/DL | ALKALINE PHOSPHATASE [2]: 321.67 u/L | ASPARTATE AMINOTRANSFERASE [2]: 76 u/L | BLOOD UREA NITROGEN [2]: 11.67 mg/dL | CARBON DIOXIDE [2]: 27.67 mmol/L | CHLORIDE [2]: 101.33 MEQ/L | CHOLESTEROL [2]: 65.33 mg/dL | CREATININE [2]: 0.14 mg/dL | GLUCOSE [2]: 206.67 mg/dL | LACTATE DEHYDROGENASE [2]: 145.67 u/L | LIPASE [2]: 9 u/L | PHOSPHORUS [2]: 13.27 mg/dL | POTASSIUM [2]: 5.08 MEQ/L | SODIUM [2]: 146.53 MEQ/L | TOTAL BILIRUBIN [2]: 0.17 mg/dL | TOTAL PROTEIN [2]: 5.9 G/DL | URIC ACID [2]: 2.27 mg/dL
